The values that follow come from US20040116352A1, “Active substance combination containing a compound with an opioid effect and at least one further compound of formula 1” (priority 2000, published 2004).

This test concerns rats. As to the kind of experiment: Tail-flick (focal-ray) test on rats. The test is classed as in vivo, rat. As to conditions: female Sprague Dawley rats, intravenous, 1.46 mg/kg morphine only, measured 10, 20, 40 and 60 min after application, FIGS. 1 and 2. An excerpt: The analgesic effect of the inventive active substance combinations and the comparative solutions was investigated in the focal-ray (tail-flick) test on rats according to D'Amour and Smith, J. Pharm. Exp. Ther. Vol. 72, pages 74-79, 1941. For this, female Sprague Dawley rats (Janvier, France) weighing between 120 and 150 g were used.
The rats were each placed in a test cage and the base of the tail exposed to the focused radiant heat from an electric lamp (tail-flick type 50/08/1.bc, Labtec, Dr. Hess). The lamp intensity was set so that the time from when the lamp was switched on until the tail was suddenly jerked away (pain latency) was 3 to 5 seconds in untreated rats. Before the application of the inventive active substance combinations and the comparative solutions, the rats were pre-tested twice within five minutes and the mean value of these measurements calculated as the pre-test mean value. The solutions of the inventive active substance combinations and the comparative solutions were then applied intravenously. The pain measurements were performed at 10, 20, 40 and 60 minutes respectively after the intravenous application. The analgesic effect was determined as an increase in the pain latency (% of the maximum possible antinociceptive effect) according to the following formula: […]

As for `CN1CC[C@]23c4c5ccc(O)c4O[C@H]2[C@@H](O)C=C[C@H]3[C@H]1C5` [Comparative Example 1, morphine], the “analgesic effect (increase in pain latency, % of the maximum possible antinociceptive effect)” value was “good analgesic effect”.
